# Tested on: 922993-354-T-J3-PDC complex spheroid viability
# Test: Anticancer human tumor 922993-354-T-J3-PDC patient-derived endometrial carcinoma cell line growth inhibition [POLQ]
# Conditions: for IC50: curve of first compound; for viability, T/C: stronger effect = lower value
# Outline: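 PDC + HUVEC + MSC complex spheroids; POLQ inhibitors ± partner drugs; top conc. at/near clinical Cmax, else 10 microM (SN-38 1 microM), half-log dilutions; 37 degrees C, 5% CO2.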
# [1] = second compound 0.0316 µM, first compound 0.00316 µM
# [2] = second compound 0.0316 µM, first compound 0.01 µM
# [3] = second compound 0.0316 µM, first compound 0.0316 µM
# [4] = second compound 0.0316 µM, first compound 0.1 µM
# [5] = second compound 0.1 µM, first compound 0.00316 µM
# [6] = second compound 0.1 µM, first compound 0.01 µM
# [7] = second compound 0.1 µM, first compound 0.0316 µM
# [8] = second compound 0.1 µM, first compound 0.1 µM
# [9] = second compound 0.316 µM, first compound 0.00316 µM
# [10] = second compound 0.316 µM, first compound 0.01 µM
# [11] = second compound 0.316 µM, first compound 0.0316 µM
# [12] = second compound 0.316 µM, first compound 0.1 µM
# [13] = second compound 1 µM, first compound 0.00316 µM
# [14] = second compound 1 µM, first compound 0.01 µM
# [15] = second compound 1 µM, first compound 0.0316 µM
# [16] = second compound 1 µM, first compound 0.1 µM
# [17] = second compound 3.16 µM, first compound 0.00316 µM
# [18] = second compound 3.16 µM, first compound 0.01 µM
# [19] = second compound 3.16 µM, first compound 0.0316 µM
# [20] = second compound 3.16 µM, first compound 0.1 µM
# [21] = second compound 10 µM, first compound 0.00316 µM
# [22] = second compound 10 µM, first compound 0.01 µM
# [23] = second compound 10 µM, first compound 0.0316 µM
# [24] = second compound 10 µM, first compound 0.1 µM
# [25] = second compound 0.0316 µM, first compound 0.316 µM
# [26] = second compound 0.0316 µM, first compound 1 µM
# [27] = second compound 0.1 µM, first compound 0.316 µM
# [28] = second compound 0.1 µM, first compound 1 µM
# [29] = second compound 0.316 µM, first compound 0.316 µM
# [30] = second compound 0.316 µM, first compound 1 µM
# [31] = second compound 1 µM, first compound 0.316 µM
# [32] = second compound 1 µM, first compound 1 µM
# [33] = second compound 3.16 µM, first compound 0.316 µM
# [34] = second compound 3.16 µM, first compound 1 µM
# [35] = second compound 10 µM, first compound 0.316 µM
# [36] = second compound 10 µM, first compound 1 µM
# 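Also: spheroids exposed to the agents for one week.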
# 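For viability, T/C in this document: 100% = DMSO vehicle control wells.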
smiles,measurement,setting,value
CC[C@@]1(O)C(=O)OCc2c1cc1n(c2=O)Cc2cc3c(CN(C)C)c(O)ccc3nc2-1 + COC1C(OC(N)=O)C(O)C(Oc2ccc3c(O)c(NC(=O)c4ccc(O)c(CC=C(C)C)c4)c(=O)oc3c2C)OC1(C)C,IC50,second compound 0.0316 µM,74.9 nM
same,IC50,second compound 0.1 µM,70.8 nM
same,IC50,second compound 0.316 µM,84.1 nM
same,IC50,second compound 1 µM,70.3 nM
same,IC50,second compound 3.16 µM,70.7 nM
same,IC50,second compound 10 µM,78.3 nM
same,"viability, T/C","second compound 0.0316 µM, first compound 0.000316 µM",102%
same,"viability, T/C","second compound 0.0316 µM, first compound 0.001 µM",83%
same,"viability, T/C",[1],98.2%
same,"viability, T/C",[2],93.5%
same,"viability, T/C",[3],76%
same,"viability, T/C",[4],41.3%
same,"viability, T/C","second compound 0.1 µM, first compound 0.000316 µM",100%
same,"viability, T/C","second compound 0.1 µM, first compound 0.001 µM",101%
same,"viability, T/C",[5],102%
same,"viability, T/C",[6],98.8%
same,"viability, T/C",[7],75.3%
same,"viability, T/C",[8],39.1%
same,"viability, T/C","second compound 0.316 µM, first compound 0.000316 µM",100%
same,"viability, T/C","second compound 0.316 µM, first compound 0.001 µM",96.6%
same,"viability, T/C",[9],100%
same,"viability, T/C",[10],96.5%
same,"viability, T/C",[11],85.9%
same,"viability, T/C",[12],43.6%
same,"viability, T/C","second compound 1 µM, first compound 0.000316 µM",108%
same,"viability, T/C","second compound 1 µM, first compound 0.001 µM",98.7%
same,"viability, T/C",[13],96.9%
same,"viability, T/C",[14],94.6%
same,"viability, T/C",[15],73.3%
same,"viability, T/C",[16],39.2%
same,"viability, T/C","second compound 3.16 µM, first compound 0.000316 µM",93.9%
same,"viability, T/C","second compound 3.16 µM, first compound 0.001 µM",99%
same,"viability, T/C",[17],89.7%
same,"viability, T/C",[18],90.9%
same,"viability, T/C",[19],79%
same,"viability, T/C",[20],37.2%
same,"viability, T/C","second compound 10 µM, first compound 0.000316 µM",92.6%
same,"viability, T/C","second compound 10 µM, first compound 0.001 µM",76.9%
same,"viability, T/C",[21],88.3%
same,"viability, T/C",[22],84.4%
same,"viability, T/C",[23],84.6%
same,"viability, T/C",[24],40.7%
CCc1c2c(nc3ccc(O)cc13)-c1cc3c(c(=O)n1C2)COC(=O)[C@]3(O)CC + COC1C(OC(N)=O)C(O)C(Oc2ccc3c(O)c(NC(=O)c4ccc(O)c(CC=C(C)C)c4)c(=O)oc3c2C)OC1(C)C,IC50,second compound 0.0316 µM,6.29 nM
same,IC50,second compound 0.1 µM,8.2 nM
same,IC50,second compound 0.316 µM,8.19 nM
same,IC50,second compound 1 µM,7.48 nM
same,IC50,second compound 3.16 µM,7.04 nM
same,IC50,second compound 10 µM,7.52 nM
same,"viability, T/C",[1],81.4%
same,"viability, T/C",[2],28.9%
same,"viability, T/C",[3],14.3%
same,"viability, T/C",[4],11.3%
same,"viability, T/C",[25],13.4%
same,"viability, T/C",[26],15.7%
same,"viability, T/C",[5],85.7%
same,"viability, T/C",[6],42.6%
same,"viability, T/C",[7],14.8%
same,"viability, T/C",[8],12.7%
same,"viability, T/C",[27],12.1%
same,"viability, T/C",[28],17.8%
same,"viability, T/C",[9],85.5%
same,"viability, T/C",[10],42.5%
same,"viability, T/C",[11],12%
same,"viability, T/C",[12],11.8%
same,"viability, T/C",[29],11.8%
same,"viability, T/C",[30],19.4%
same,"viability, T/C",[13],85.6%
same,"viability, T/C",[14],37.9%
same,"viability, T/C",[15],11.6%
same,"viability, T/C",[16],9.81%
same,"viability, T/C",[31],12.3%
same,"viability, T/C",[32],16.5%
same,"viability, T/C",[17],76.3%
same,"viability, T/C",[18],38.5%
same,"viability, T/C",[19],15.2%
same,"viability, T/C",[20],11.2%
same,"viability, T/C",[33],14.2%
same,"viability, T/C",[34],19.2%
same,"viability, T/C",[21],83.8%
same,"viability, T/C",[22],38.8%
same,"viability, T/C",[23],10%
same,"viability, T/C",[24],10.3%
same,"viability, T/C",[35],13.1%
same,"viability, T/C",[36],17%
CNCc1ccc(-c2[nH]c3cc(F)cc4c3c2CCNC4=O)cc1 + COC1C(OC(N)=O)C(O)C(Oc2ccc3c(O)c(NC(=O)c4ccc(O)c(CC=C(C)C)c4)c(=O)oc3c2C)OC1(C)C,IC50,second compound 0.0316 µM,> 10000 nM
same,IC50,second compound 0.1 µM,> 10000 nM
same,IC50,second compound 0.316 µM,> 10000 nM
same,IC50,second compound 1 µM,> 10000 nM
same,IC50,second compound 3.16 µM,> 10000 nM
same,IC50,second compound 10 µM,> 10000 nM
same,"viability, T/C",[3],104%
same,"viability, T/C",[4],100%
same,"viability, T/C",[25],98.3%
same,"viability, T/C",[26],109%
same,"viability, T/C","second compound 0.0316 µM, first compound 3.16 µM",105%
same,"viability, T/C","second compound 0.0316 µM, first compound 10 µM",85.4%
same,"viability, T/C",[7],107%
same,"viability, T/C",[8],106%
same,"viability, T/C",[27],94.3%
same,"viability, T/C",[28],90%
same,"viability, T/C","second compound 0.1 µM, first compound 3.16 µM",91.5%
same,"viability, T/C","second compound 0.1 µM, first compound 10 µM",78.6%
same,"viability, T/C",[11],102%
same,"viability, T/C",[12],103%
same,"viability, T/C",[29],108%
same,"viability, T/C",[30],90.3%
same,"viability, T/C","second compound 0.316 µM, first compound 3.16 µM",85.8%
same,"viability, T/C","second compound 0.316 µM, first compound 10 µM",81.3%
same,"viability, T/C",[15],102%
same,"viability, T/C",[16],101%
same,"viability, T/C",[31],98.2%
same,"viability, T/C",[32],107%
same,"viability, T/C","second compound 1 µM, first compound 3.16 µM",89%
same,"viability, T/C","second compound 1 µM, first compound 10 µM",77.4%
same,"viability, T/C",[19],95.5%
same,"viability, T/C",[20],89.9%
same,"viability, T/C",[33],86.6%
same,"viability, T/C",[34],79%
same,"viability, T/C","second compound 3.16 µM, first compound 3.16 µM",108%
same,"viability, T/C","second compound 3.16 µM, first compound 10 µM",70.1%
same,"viability, T/C",[23],95.4%
same,"viability, T/C",[24],80.8%
same,"viability, T/C",[35],80.9%
same,"viability, T/C",[36],73.1%
same,"viability, T/C","second compound 10 µM, first compound 3.16 µM",86.7%
same,"viability, T/C","second compound 10 µM, first compound 10 µM",78.8%
